pIC50: −log10 of the molar value.
Target: T1, human CRHR2-alpha (Homo sapiens, UniProt Q13324)
T1 sequence (Q13324 1-411): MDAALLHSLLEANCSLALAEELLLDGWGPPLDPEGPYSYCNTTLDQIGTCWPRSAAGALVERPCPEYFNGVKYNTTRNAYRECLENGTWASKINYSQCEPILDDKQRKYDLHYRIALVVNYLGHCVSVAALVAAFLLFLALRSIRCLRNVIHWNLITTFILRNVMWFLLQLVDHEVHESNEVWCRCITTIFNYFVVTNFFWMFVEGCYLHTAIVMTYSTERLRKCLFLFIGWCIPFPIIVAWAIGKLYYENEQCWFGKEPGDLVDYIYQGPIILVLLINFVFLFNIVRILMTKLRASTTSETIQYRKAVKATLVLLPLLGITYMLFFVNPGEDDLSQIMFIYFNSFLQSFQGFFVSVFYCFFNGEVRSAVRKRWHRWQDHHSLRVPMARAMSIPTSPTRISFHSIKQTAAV
Experiment: cAMP functional assay for human CRHR2 (LANCE Ultra cAMP, TR-FRET)
Assay type: cell-based
Conditions: CHO-K1 cells expressing human CRHR2-alpha, agonist human urocortin2 at EC80, cAMP; read-out: IC50 against CRHR2
Summary of the method: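 Antagonism measured in CHO-K1 cells stably expressing the receptor, serum-starved 7 h then cryopreserved. Thawed cells in HBSS buffer with 0.1% BSA, 0.5 mM IBMX, 5 mM Hepes pH 7.4 were preincubated with compound 30 min at 25° C, then stimulated 30 min with EC80 agonist: urocortin2 for CRHR2, CRF for CRHR1.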

| SMILES | pIC50 |
| --- | --- |
| O=C(N[C@H]1CC[C@H](Cn2c(=O)n(-c3ccc(O[C@H]4CCOC4)nc3)c3ccccc32)CC1)c1cc(Cl)cnc1C(F)F [Example 430, 5-chloro-2-(difluoromethyl)-N-((1S,4r)-4-((2-oxo-3-(6-(((S)-tetrahydrofuran-3-yl)oxy)pyridin-3-yl)-2,3-dihydro-1H-benzo[d]imidazol-1-yl)methyl)cyclohexyl)nicotinamide] | > 6.52 |
| CONC(=O)c1ccc(-n2c(=O)n(C[C@H]3CC[C@H](NC(=O)c4cc(Cl)cnc4C(F)(F)F)CC3)c3ccccc32)cn1 [Example 431, 5-(3-(((1r,4r)-4-(5-chloro-2-(trifluoromethyl)nicotinamido)cyclohexyl)methyl)-2-oxo-2,3-dihydro-1H-benzo[d]imidazol-1-yl)-N-methoxypicolinamide] | > 6.52 |
| O=C(N[C@H]1CC[C@H](Cn2c(=O)n(-c3ccc(OCCF)nc3)c3ccccc32)CC1)c1cc(Cl)cnc1C(F)F [Example 432, 5-chloro-2-(difluoromethyl)-N-((1r,4r)-4-((3-(6-(2-fluoroethoxy)pyridin-3-yl)-2-oxo-2,3-dihydro-1H-benzo[d]imidazol-1-yl)methyl)cyclohexyl)nicotinamide] | > 6.52 |
| CNc1cc(C)c(-n2c(=O)n(C[C@H]3CC[C@H](NC(=O)c4cc(Cl)cnc4C)CC3)c3ccccc32)cn1 [Example 435, 5-chloro-2-methyl-N-((1r,4r)-4-((3-(4-methyl-6-(methylamino)pyridin-3-yl)-2-oxo-2,3-dihydro-1H-benzo[d]imidazol-1-yl)methyl)cyclohexyl)nicotinamide] | > 6.52 |
| Cc1ncc(Cl)cc1C(=O)N[C@H]1CC[C@H](Cn2c(=O)n(-c3ccc(NCC(F)(F)F)nc3)c3ccccc32)CC1 [Example 436, 5-chloro-2-methyl-N-((1r,4r)-4-((2-oxo-3-(6-((2,2,2-trifluoro-ethyl)amino)pyridin-3-yl)-2,3-dihydro-1H-benzo[d]imidazol-1-yl)methyl)cyclohexyl) nicotinamide] | > 6.52 |
| Cc1ncc(Cl)cc1C(=O)N[C@H]1CC[C@H](Cn2c(=O)n(-c3ccc(NCC(F)F)nc3)c3ccccc32)CC1 [Example 437, 5-chloro-N-((1r,4r)-4-((3-(6-((2,2-difluoroethyl)amino)pyridin-3-yl)-2-oxo-2,3-dihydro-1H-benzo[d]imidazol-1-yl)methyl)cyclohexyl)-2-methylnicotinamide] | > 6.52 |
| Cc1ncc(Cl)cc1C(=O)N[C@H]1CC[C@H](Cn2c(=O)n(-c3ccc(OC[C@@H](C)O)nc3)c3ccccc32)CC1 [Example 438, 5-chloro-N-((1R,4r)-4-((3-(6-((R)-2-hydroxypropoxy)pyridin-3-yl)-2-oxo-2,3-dihydro-1H-benzo[d]imidazol-1-yl)methyl)cyclohexyl)-2-methylnicotinamide] | > 6.52 |
| C[C@@H](O)COc1ccc(-n2c(=O)n(C[C@H]3CC[C@H](NC(=O)c4cc(Cl)cnc4C(F)F)CC3)c3ccccc32)cn1 [Example 439, 5-chloro-2-(difluoromethyl)-N-((1R,4r)-4-((3-(6-((R)-2-hydroxypropoxy)pyridin-3-yl)-2-oxo-2,3-dihydro-1H-benzo[d]imidazol-1-yl)methyl)cyclohexyl)nicotinamide] | > 6.52 |
| C[C@H](O)COc1ccc(-n2c(=O)n(C[C@H]3CC[C@H](NC(=O)c4cc(Cl)cnc4C(F)F)CC3)c3ccccc32)cn1 [Example 440, 5-chloro-2-(difluoromethyl)-N-((1S,4r)-4-((3-(6-((S)-2-hydroxypropoxy)pyridin-3-yl)-2-oxo-2,3-dihydro-1H-benzo[d]imidazol-1-yl)methyl)cyclohexyl)nicotinamide] | > 6.52 |
| Cc1ncc(Cl)cc1C(=O)N[C@H]1CC[C@H](Cn2c(=O)n(-c3ccc(NCc4cnn(C)c4)nc3)c3ccccc32)CC1 [Example 441, 5-chloro-2-methyl-N-((1r,4r)-4-((3-(6-(((1-methyl-1H-pyrazol-4-yl)methyl)amino)pyridin-3-yl)-2-oxo-2,3-dihydro-1H-benzo[d]imidazol-1-yl)methyl)cyclohexyl)nicotinamide] | > 6.52 |
| Cc1ncc(Cl)cc1C(=O)N[C@H]1CC[C@H](Cn2c(=O)n(-c3cnc4cccnc4c3)c3ccccc32)CC1 [Example 442, N-((1r,4r)-4-((3-(1,5-naph-thyridin-3-yl)-2-oxo-2,3-dihydro-1H-benzo[d]imidazol-1-yl)methyl)cyclo-hexyl)-5-chloro-2-methyl-nicotinamide] | > 6.52 |
| Cc1ncc(Cl)cc1C(=O)N[C@H]1CC[C@H](Cn2c(=O)n(-c3ccc4cncnc4c3)c3ccccc32)CC1 [Example 443, 5-chloro-2-methyl-N-((1r,4r)-4-((2-oxo-3-(quinazolin-7-yl)-2,3-dihydro-1H-benzo[d]imidazol-1-yl)methyl)cyclo-hexyl)nicotinamide] | > 6.52 |
| Cc1ncc(Cl)cc1C(=O)N[C@H]1CC[C@H](Cn2c(=O)n(-c3cccc(N4CCOCC4)c3)c3ccccc32)CC1 [Example 444, 5-chloro-2-methyl-N-((1r,4r)-4-((3-(3-morpholinophenyl)-2-oxo-2,3-dihydro-1H-benzo [d]imidazol-1-yl)methyl)cyclo-hexyl)nicotinamide] | > 6.52 |
| Cc1ncc(Cl)cc1C(=O)N[C@H]1CC[C@H](Cn2c(=O)n(-c3ccc(-c4ccon4)cc3)c3ccccc32)CC1 [Example 445, 5-chloro-N-((1r,4r)-4-((3-(4-(isoxazol-3-yl)phenyl)-2-oxo-2,3-dihydro-1H-benzo[d]imidazol-1-yl)methyl)cyclo-hexyl)-2-methylnicotinamide] | > 6.52 |
| Cc1ncc(Cl)cc1C(=O)N[C@H]1CC[C@H](Cn2c(=O)n(-c3ccc(-c4ccnn4C)cc3)c3ccccc32)CC1 [Example 446, 5-chloro-2-methyl-N-((1r,4r)-4-((3-(4-(1-methyl-1H-pyrazol-5-yl)phenyl)-2-oxo-2,3-dihydro-1H-benzo[d]imidazol-1-yl)methyl)cyclo-hexyl)nicotinamide] | > 6.52 |
| Cc1ncc(Cl)cc1C(=O)N[C@H]1CC[C@H](Cn2c(=O)n(-c3ccc(-c4ccn(C)n4)cc3)c3ccccc32)CC1 [Example 447, 5-chloro-2-methyl-N-((1r,4r)-4-((3-(4-(1-methyl-1H-pyrazol-3-yl)phenyl)-2-oxo-2,3-dihydro-1H-benzo[d]imidazol-1-yl)methyl)cyclo-hexyl)nicotinamide] | > 6.52 |
| Cc1ncc(Cl)cc1C(=O)N[C@H]1CC[C@H](Cn2c(=O)n(Cc3ccccc3)c3ncccc32)CC1 [Example 448, N-((1r,4r)-4-((3-benzyl-2-oxo-2,3-dihydro-1H-imidazo [4,5-b]pyridin-1-yl)methyl)cyclohexyl)-5-chloro-2-methylnicotinamide] | > 6.52 |
| O=C(N[C@H]1CC[C@H](Cn2c(=O)n(-c3ccccc3F)c3ncccc32)CC1)c1cc(Cl)cnc1C(F)F [Example 449, 5-chloro-2-(difluoromethyl)-N-((1r,4r)-4-((3-(2-fluoro-phenyl)-2-oxo-2,3-dihydro-1H-imidazo[4,5-b]pyridin-1-yl)methyl)cyclohexyl) nicotinamide] | > 6.52 |
| Cc1ncc(Cl)cc1C(=O)N[C@H]1CC[C@H](Cn2c(=O)n(-c3ccc(-c4cnco4)cc3)c3ccccc32)CC1 [Example 450, 5-chloro-2-methyl-N-((1r,4r)-4-((3-(4-(oxazol-5-yl)phenyl)-2-oxo-2,3-dihydro-1H-benzo [d]imidazol-1-yl)methyl)cyclo-hexyl)nicotinamide] | > 6.52 |
| Cc1ncc(Cl)cc1C(=O)N[C@H]1CC[C@H](Cn2c(=O)n(-c3ccc(-c4ncco4)cc3)c3ccccc32)CC1 [Example 451, 5-chloro-2-methyl-N-((1r,4r)-4-((3-(4-(oxazol-2-yl)phenyl)-2-oxo-2,3-dihydro-1H-benzo [d]imidazol-1-yl)methyl)cyclo-hexyl)nicotinamide] | > 6.52 |
| Cc1ccc(-n2c(=O)n(C[C@H]3CC[C@H](NC(=O)c4cc(Cl)cnc4C(F)F)CC3)c3cccnc32)c(Cl)c1 [Example 452, 5-chloro-N-((1r,4r)-4-((3-(2-chloro-4-methylphenyl)-2-oxo-2,3-dihydro-1H-imidazo[4,5-b]pyridin-1-yl)methyl)cyclo-hexyl)-2-(difluoromethyl) nicotinamide] | > 6.52 |
| COc1ccc(Cl)c(-n2c(=O)n(C[C@H]3CC[C@H](NC(=O)c4cc(Cl)cnc4C(F)F)CC3)c3cccnc32)c1 [Example 453, 5-chloro-N-((1r,4r)-4-((3-(2-chloro-5-methoxyphenyl)-2-oxo-2,3-dihydro-1H-imidazo [4,5-b]pyridin-1-yl)methyl)cyclohexyl)-2-(difluoromethyl) nicotinamide] | > 6.52 |
| O=C(N[C@H]1CC[C@H](Cn2c(=O)n(-c3cc(F)ccc3Cl)c3ncccc32)CC1)c1cc(Cl)cnc1C(F)F [Example 454, 5-chloro-N-((1r,4r)-4-((3-(2-chloro-5-fluorophenyl)-2-oxo-2,3-dihydro-1H-imidazo[4,5-b]pyridin-1-yl)methyl)cyclo-hexyl)-2-(difluoromethyl) nicotinamide] | > 6.52 |
| O=C(N[C@H]1CC[C@H](Cn2c(=O)n(-c3cnc4[nH]ccc4c3)c3ccccc32)CC1)c1cc(Cl)cnc1C(F)F [Example 455, 5-chloro-2-(difluoromethyl)-N-((1r,4r)-4-((2-oxo-3-(1H-pyrrolo[2,3-b]pyridin-5-yl)-2,3-dihydro-1H-benzo[d]imidazol-1-yl)methyl)cyclo-hexyl)nicotinamide] | > 6.52 |

Source: patent publication US11802120B2, “Fused cyclic urea derivatives as CRHR2 antagonist” (RaQualia Pharma Inc., priority 2018, dated 2023)
